In PubChem BioAssay (NCI):
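Compound exposure: 48 hours, 5 concentrations, 96-well plates. Here, GI50 denotes the concentration required for 50% inhibition of growth. TGI: concentration producing complete growth inhibition.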

What was measured:
Experiment in all cases: DTP human tumour cell line panel, 48 h
A498 renal = tested on: A498 renal
EKVX NSCLC = tested on: EKVX NSCLC
HS 578T breast = tested on: HS 578T breast
SF-539 CNS = tested on: SF-539 CNS
SK-MEL-28 melanoma = tested on: SK-MEL-28 melanoma
SK-MEL-5 melanoma = tested on: SK-MEL-5 melanoma
SNB-75 CNS = tested on: SNB-75 CNS
T-47D breast = tested on: T-47D breast
TK-10 renal = tested on: TK-10 renal
U251 CNS = tested on: U251 CNS

| Compound | GI50 (A498 renal) [µM] | TGI (A498 renal) [µM] | GI50 (EKVX NSCLC) [µM] | TGI (EKVX NSCLC) [µM] | GI50 (HS 578T breast) [µM] | TGI (HS 578T breast) [µM] | GI50 (SF-539 CNS) [µM] | TGI (SF-539 CNS) [µM] | GI50 (SK-MEL-28 melanoma) [µM] | TGI (SK-MEL-28 melanoma) [µM] | GI50 (SK-MEL-5 melanoma) [µM] | TGI (SK-MEL-5 melanoma) [µM] | GI50 (SNB-75 CNS) [µM] | TGI (SNB-75 CNS) [µM] | GI50 (T-47D breast) [µM] | TGI (T-47D breast) [µM] | GI50 (TK-10 renal) [µM] | TGI (TK-10 renal) [µM] | GI50 (U251 CNS) [µM] | TGI (U251 CNS) [µM] |
| --- | --- | --- | --- | --- | --- | --- | --- | --- | --- | --- | --- | --- | --- | --- | --- | --- | --- | --- | --- | --- |
| C=C1C(=O)O[C@H]2[C@H]1CC/C(Cn1cc(CNC(=O)c3cc4ccccc4[nH]3)nn1)=C\CC[C@@]1(C)O[C@@H]21 | 18.9 | 36 | 13.2 | 30.2 | 19 | 55.4 | 2.85 | 8.65 | 2.18 | 4.69 | 8.1 | 23.4 | 10.4 | 22.4 | 3.55 | 20.4 | 4.41 | 15.2 | 8.24 | 21.8 |
| COc1cc2c(cc1Nc1nc(Nc3ccsc3C(N)=O)c3cc[nH]c3n1)N(C(=O)CN(C)C)CCC2 | 0.5 | 4.13 | 0.551 | 6.35 | 1.14 | 5.42 | 0.983 | 4.16 | 1.8 | 5.69 | 0.383 | 3.2 | 1.49 | 3.92 | 3.87 | 9.65 | 1.46 | 6.27 | 1.14 | 12.8 |
| COc1cc(OC)c(-c2oc3ccccc3c(=O)c2O)c(OC)c1 | – | > 100 | – | > 100 | – | 24.2 | – | > 100 | – | > 100 | – | > 100 | – | > 100 | – | > 100 | – | > 100 | – | > 100 |
| O=C1C2=C(Nc3cc([N+](=O)[O-])ccc3N2)OC1c1c[nH]c2ccc(COc3ccccc3)cc12 (stereo unspecified) | – | > 100 | – | > 100 | – | > 100 | – | > 100 | – | > 100 | – | > 100 | – | 65.9 | – | > 100 | – | > 100 | – | > 100 |
| Oc1c(Br)cc(Br)c2cccnc12 | 2.03 | 11.5 | 3.45 | 19.1 | 5.73 | > 100 | 3.17 | 7.63 | 4.79 | > 100 | 2.09 | 5.19 | 10.7 | > 100 | 3.03 | 18.4 | 14.2 | > 100 | 3.34 | 18.8 |
| CNCc1ccc(C)c(NC(=O)c2ccc(Nc3nc(-c4ccccc4)c4ccccc4n3)cc2)c1 | 1.53 | 3.04 | 1.64 | 3.35 | 1.76 | 4.17 | 1.82 | 3.46 | – | – | 1.71 | 3.12 | 0.842 | 2.32 | 2.26 | 5.59 | 2.12 | 4.56 | 1.54 | 2.96 |
| Cc1nn(-c2ccccc2)c2ncc3c(c12)C(=O)N(Cc1ccccc1)C3=O | 3.51 | 21.8 | 5.64 | > 100 | 2.98 | > 100 | 12.2 | 56.7 | > 100 | > 100 | > 100 | > 100 | 2.23 | 6.64 | 4.86 | 20.7 | – | – | 3.12 | 14.2 |
